molecular target: T1, GID4 (Uniprot ID: Q81VV7, residues 124-289) (Homo sapiens, UniProt Q8IVV7); assay: GID4 competitive binding assay (AlphaScreen, GID4/degron peptide PGLW); conditions: 24 nM GID4, 48 nM biotinylated degron peptide PGLW, 4° C., read-out: IC50 (Inhibition of GID4/Degron binding by test compounds)
T1 construct: GID4 (Uniprot ID: Q81VV7, residues 124-289)
T1 sequence (Q8IVV7 124-289): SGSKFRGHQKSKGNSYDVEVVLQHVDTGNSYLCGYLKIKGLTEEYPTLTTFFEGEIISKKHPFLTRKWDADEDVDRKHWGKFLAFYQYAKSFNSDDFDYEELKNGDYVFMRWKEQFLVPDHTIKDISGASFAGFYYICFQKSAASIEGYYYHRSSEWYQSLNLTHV
In short: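 His-tagged human GID4 (residues 124-289, 24 nM) pre-incubated 2 h at 4 °C with 48 nM biotinylated PGLW peptide and compound in HEPES pH 7.5 buffer, 2% DMSO (final). AlphaScreen streptavidin donor/Ni-NTA acceptor beads added for 1 h; IC50 from nonlinear fit of % inhibition versus DMSO.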

Compound	IC50 [µM]
Nc1nccc2ccc(-c3ccc4[nH]nc(C(=O)N5CCC(O)CC5)c4c3)cc12 [Compound 336, (5-(1-aminoisoquinolin-7-yl)-1H-indazol-3-yl)(4-hydroxypiperidin-1-yl)methanone]	< 0.5
CC(C)c1cc(NCCc2c[nH]c3ccccc23)nc(N)n1 [Compound 203, N4-(2-(1H-indol-3-yl)ethyl)-6-isopropylpyrimidine-2,4-diamine]	> 5
Nc1nc(NC2CC2)c(Cl)c(N2CCNC(c3ccccc3Br)C2)n1 (stereo not shown) [Compound 63, 6-(3-(2-bromophenyl)piperazin-1-yl)-5-chloro-N4-cyclopropylpyrimidine-2,4-diamine]	0.5 to 5
CC(C)c1cc(N2CCCC(c3nn(C)c4ccccc34)C2)nc(N)n1 (stereo not shown) [Compound 232, 4-isopropyl-6-(3-(1-methyl-1H-indazol-3-yl)piperidin-1-yl)pyrimidin-2-amine]	0.5 to 5
Nc1cc(N2CCNC(c3cnc4ccccn34)C2)nc(N)n1 (racemic) [Compound 119, (S/R)-6-(3-(imidazo[1,2-a]pyridin-3-yl)piperazin-1-yl)pyrimidine-2,4-diamine]	> 5
CC(C)c1cc(N2CCC=C(c3ccccc3Br)C2)nc(N)n1 [Compound 230, 4-(5-(2-bromophenyl)-3,6-dihydropyridin-1(2H)-yl)-6-isopropylpyrimidin-2-amine]	> 5
CC(C)c1cc(N2CCCC(c3cnc4ncccn34)C2)nc(N)n1 (stereo not shown) [Compound 245, 4-(3-(imidazo[1,2-a]pyrimidin-3-yl)piperidin-1-yl)-6-isopropylpyrimidin-2-amine]	< 0.5
CN(C)[C@H]1CC[C@@H](NC(=O)c2ccc(-c3cc(O)c4ncccc4c3)cc2)CC1 [Compound 286, N-(cis-4-(dimethylamino)cyclohexyl)-4-(8-hydroxyquinolin-6-yl)benzamide]	< 0.5
c1ccn2c(C3CCCN(c4ncnc5[nH]ccc45)C3)cnc2c1 (stereo not shown) [Compound 90, 4-(3-(imidazo[1,2-a]pyridin-3-yl)piperidin-1-yl)-7H-pyrrolo[2,3-d]pyrimidine]	> 5
CC(C)c1nc(N)cc(N2CCN[C@@H](c3ccccc3Br)C2)n1 (racemic) [Compound 75, (S/R)-6-(3-(2-bromophenyl)piperazin-1-yl)-2-isopropylpyrimidin-4-amine]	0.5 to 5
Nc1nc2c(c(N3CCNC(c4nnc[nH]4)C3)n1)CSC2 (stereo not shown) [Compound 185, 4-(3-(4H-1,2,4-triazol-3-yl)piperazin-1-yl)-5,7-dihydrothieno[3,4-d]pyrimidin-2-amine]	0.5 to 5
CNc1nc(C(C)C)cc(N2CCNC(c3ccccc3Br)C2)n1 (single isomer, unassigned) [Compound 152, (R/S)-4-(3-(2-bromophenyl)piperazin-1-yl)-6-isopropyl-N-methylpyrimidin-2-amine]	0.5 to 5
CN(C)C1CCN(C(=O)c2n[nH]c3ccc(-c4ccc5ccnc(N)c5c4)cc23)CC1 [Compound 335, (5-(1-aminoisoquinolin-7-yl)-1H-indazol-3-yl)(4-(dimethylamino)piperidin-1-yl)methanone]	< 0.5
Nc1nc2c(c(N3CCCC(c4ccn[nH]4)C3)n1)CSC2 (stereo not shown) [Compound 199, 4-(3-(1H-pyrazol-5-yl)piperidin-1-yl)-5,7-dihydrothieno[3,4-d]pyrimidin-2-amine]	> 5
Nc1nccc2ccc(-c3cc(C(=O)N4CCCC4)cc4c3CCCC4)cc12 [Compound 342, (4-(1-aminoisoquinolin-7-yl)-5,6,7,8-tetrahydronaphthalen-2-yl)(pyrrolidin-1-yl)methanone]	0.5 to 5
CNc1nc(N)cc(N2CCCC(c3cnc4ccccn34)C2)n1 (racemic) [Compound 118, (R/S)-6-(3-(imidazo[1,2-a]pyridin-3-yl)piperidin-1-yl)-N2-methylpyrimidine-2,4-diamine]	0.5 to 5
CC(C)c1cc(N2CCN(C)C(c3cnc4ccccn34)C2)nc(N)n1 (single isomer, unassigned) [Compound 105, (S/R)-4-(3-(imidazo[1,2-a]pyridin-3-yl)-4-methylpiperazin-1-yl)-6-isopropylpyrimidin-2-amine]	> 5
COc1ccccc1C1CN(c2cc(C(C)C)nc(N)n2)CCN1 (stereo not shown) [Compound 171, 4-isopropyl-6-(3-(2-methoxyphenyl)piperazin-1-yl)pyrimidin-2-amine]	0.5 to 5
CC(C)c1cc(N2CCNC(c3cc(C(=O)N4CCN(C)CC4)ccc3Br)C2)nc(N)n1 (single isomer, unassigned) [Compound 18, (S/R)-(3-(4-(2-amino-6-isopropylpyrimidin-4-yl)piperazin-2-yl)-4-bromophenyl)(4-methylpiperazin-1-yl)methanone]	0.5 to 5
Nc1cc(N2CCOC(c3ccccc3Br)C2)nc(N)n1 (single isomer, unassigned) [Compound 146, (S/R)-6-(2-(2-bromophenyl)morpholino)pyrimidine-2,4-diamine]	< 0.5

Compound	IC50 [µM]
CNc1cc(N2CCC[C@H](c3ccccc3Br)C2)nc(N)n1 (stereo in doubt) [Compound 86, (R/S)-6-(3-(2-bromophenyl)piperidin-1-yl)-N4-methylpyrimidine-2,4-diamine]	0.5 to 5
Nc1nc(NC2CC2)cc(N2CCO[C@H](c3ccccc3Br)C2)n1 (stereo in doubt) [Compound 97, (R/S)-6-(2-(2-bromophenyl)morpholino)-N4-cyclopropylpyrimidine-2,4-diamine]	> 5
Nc1cc(N2CCCC(c3cnc4ccncn34)C2)nc(N)n1 (stereo not shown) [Compound 258, 6-(3-(imidazo[1,2-c]pyrimidin-3-yl)piperidin-1-yl)pyrimidine-2,4-diamine]	0.5 to 5
Nc1cc(N2CCCC(c3cnc4ccccn34)C2)nc(N)n1 (racemic) [Compound 116, (R/S)-6-(3-(imidazo[1,2-a]pyridin-3-yl)piperidin-1-yl)pyrimidine-2,4-diamine]	0.5 to 5
CN1CC(CNC(=O)c2ccc(-c3cc(O)c4ncccc4c3)cc2)C1 [Compound 298, 4-(8-hydroxyquinolin-6-yl)-N-((1-methylazetidin-3-yl)methyl)benzamide]	< 0.5
CNC(=O)CCC1CCCN(c2nc(N)nc3c2CCCN3)C1 (stereo not shown) [Compound 140, 3-(1-(2-amino-5,6,7,8-tetrahydropyrido[2,3-d]pyrimidin-4-yl)piperidin-3-yl)-N-methylpropanamide]	0.5 to 5
Cn1cc(CNC(=O)c2n[nH]c3ccc(-c4ccc5ccnc(N)c5c4)cc23)cn1 [Compound 328, 5-(1-aminoisoquinolin-7-yl)-N-((1-methyl-1H-pyrazol-4-yl)methyl)-1H-indazole-3-carboxamide]	< 0.5
Nc1nc(N2CCOC(c3ccccc3Br)C2)c2cc[nH]c2n1 (single isomer, unassigned) [Compound 39, (R/S)-4-(2-(2-bromophenyl)morpholino)-7H-pyrrolo[2,3-d]pyrimidin-2-amine]	> 5
Nc1nc2c(c(N3CCCC(c4ccn[nH]4)C3)n1)CCC2 (stereo not shown) [Compound 195, 4-(3-(1H-pyrazol-5-yl)piperidin-1-yl)-6,7-dihydro-5H-cyclopenta[d]pyrimidin-2-amine]	> 5
NC(=O)CCC1CCCN(c2nc(N)nc3c2CSC3)C1 (stereo not shown) [Compound 201, 3-(1-(2-amino-5,7-dihydrothieno[3,4-d]pyrimidin-4-yl)piperidin-3-yl)propanamide]	> 5
Nc1nc(C2CC2)cc(N2CCCC(c3ccn[nH]3)C2)n1 (stereo not shown) [Compound 211, 4-(3-(1H-pyrazol-5-yl)piperidin-1-yl)-6-cyclopropylpyrimidin-2-amine]	> 5
CNc1cc(N2CCCC(n3nc4ccccc4n3)C2)nc(N)n1 (stereo not shown) [Compound 259, 6-(3-(2H-benzo[d][1,2,3]triazol-2-yl)piperidin-1-yl)-N4-methylpyrimidine-2,4-diamine]	> 5
CC(C)c1cc(N2CCNC(c3ccccc3)C2)nc(N)n1 (stereo not shown) [Compound 165, 4-isopropyl-6-(3-phenylpiperazin-1-yl)pyrimidin-2-amine]	> 5
Cc1c(-c2ccc(Br)c(C3CN(c4cc(C(C)C)nc(N)n4)CCN3)c2)cnn1C (single isomer, unassigned) [Compound 6, R or S-4-(3-(2-bromo-5-(1,5-dimethyl-1H-pyrazol-4-yl)phenyl)piperazin-1-yl)-6-isopropylpyrimidin-2-amine]	< 0.5
Nc1cc(N2CCCC(O)(c3ccccc3Br)C2)nc(N)n1 (stereo not shown) [Compound 234, 3-(2-bromophenyl)-1-(2,6-diaminopyrimidin-4-yl)piperidin-3-ol]	0.5 to 5
CN(C)CCCNC(=O)c1cc(F)c(-c2cc(O)c3ncccc3c2)cc1F [Compound 316, N-(3-(dimethylamino)propyl)-2,5-difluoro-4-(8-hydroxyquinolin-6-yl)benzamide]	< 0.5
CC(C)c1cc(N2CCCC(c3ccn[nH]3)C2)nc(N)n1 (stereo not shown) [Compound 210, 4-(3-(1H-pyrazol-5-yl)piperidin-1-yl)-6-isopropylpyrimidin-2-amine]	> 5
CC(C)c1cc(N2CCCC(c3ncc4ccccn34)C2)nc(N)n1 (stereo not shown) [Compound 244, 4-(3-(imidazo[1,5-a]pyridin-3-yl)piperidin-1-yl)-6-isopropylpyrimidin-2-amine]	0.5 to 5
CN(C)CCNC(=O)c1n[nH]c2ccc(-c3ccc4ncnc(N)c4c3)cc12 [Compound 329, 5-(4-aminoquinazolin-6-yl)-N-(2-(dimethylamino)ethyl)-1H-indazole-3-carboxamide]	0.5 to 5
Nc1cc(N2CCNC(c3cc(C(F)(F)F)ccc3Br)C2)nc(N)n1 (single isomer, unassigned) [Compound 11, (R/S)-6-(3-(2-bromo-5-(trifluoromethyl)phenyl)piperazin-1-yl)pyrimidine-2,4-diamine]	0.5 to 5

Source: patent US20240132464A1, “HETEROCYCLIC COMPOUNDS AS E3 LIGASE INHIBITORS” (Accutar Biotechnology Inc., priority 2022, published 2024)
